Results: PMC10709440, “High-throughput ligand profile characterization in novel cell lines expressing seven heterologous insect olfactory receptors for the detection of volatile plant biomarkers” (Scientific Reports, 2023)
Where two headings read alike, the source gives them in different places.

Tests used:
Drosophila OR47a = target: T1, Drosophila OR47a (Drosophila melanogaster, UniProt P81921); test: Calcium ion fluorescence (GCaMP6) assay, OR47a stable HEK293 cell line; format: cell-based; settings: for Average response / OR47a response (VUAA1-normalized) at 1 μM / OR47a response (VUAA1-normalized) at 10 μM / OR47a response (VUAA1-normalized) at 100 μM: OR47a cell line; for Average response: mean of biological replicates
T1 construct: expressed in transfected cells
T1 sequence (P81921 1-385): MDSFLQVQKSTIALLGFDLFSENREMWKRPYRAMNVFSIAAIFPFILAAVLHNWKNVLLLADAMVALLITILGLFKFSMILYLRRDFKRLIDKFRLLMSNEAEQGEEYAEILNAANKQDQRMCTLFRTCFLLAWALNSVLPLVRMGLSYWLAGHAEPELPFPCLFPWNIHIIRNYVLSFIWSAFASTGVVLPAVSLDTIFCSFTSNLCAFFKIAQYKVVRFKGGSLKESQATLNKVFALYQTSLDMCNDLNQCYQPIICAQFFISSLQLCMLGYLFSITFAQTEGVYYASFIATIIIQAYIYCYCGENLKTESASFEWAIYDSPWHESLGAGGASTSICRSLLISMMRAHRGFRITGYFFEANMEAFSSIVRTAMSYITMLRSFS
T1 sequence (Q9VNB5 1-486 partner): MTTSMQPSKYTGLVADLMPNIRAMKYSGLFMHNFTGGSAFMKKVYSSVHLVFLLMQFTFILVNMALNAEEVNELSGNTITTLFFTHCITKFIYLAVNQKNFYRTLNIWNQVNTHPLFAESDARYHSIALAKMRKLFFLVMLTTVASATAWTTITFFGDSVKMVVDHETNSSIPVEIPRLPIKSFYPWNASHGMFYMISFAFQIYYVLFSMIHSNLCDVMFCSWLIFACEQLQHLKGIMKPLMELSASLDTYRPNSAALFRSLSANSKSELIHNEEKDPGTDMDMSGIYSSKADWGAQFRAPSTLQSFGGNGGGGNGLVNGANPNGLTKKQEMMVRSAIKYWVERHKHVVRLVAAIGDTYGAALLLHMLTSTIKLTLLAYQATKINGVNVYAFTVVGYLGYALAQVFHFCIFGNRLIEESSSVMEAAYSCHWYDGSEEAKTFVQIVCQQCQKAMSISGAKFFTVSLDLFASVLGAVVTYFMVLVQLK
How it was run: (§1)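 Responses are VUAA1-normalized ΔF: each VOC-evoked calcium signal, (FMAX−F0)/F0 over 30 s after injection, divided by the same line's mean 50 µM VUAA1 response. Cells were doxycycline-induced HEK293 with GCaMP6 and the cognate Drosophila OR, in HEPES buffer pH 7.3; ligands tested 0.01–100 μM.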

Drosophila OR13a = target: T2, Drosophila OR13a (Drosophila melanogaster, UniProt Q9VXL0); test: Calcium ion fluorescence (GCaMP6) assay, OR13a stable HEK293 cell line; format: cell-based; settings: for OR13a response (VUAA1-normalized) at 1 μM / OR13a response (VUAA1-normalized) at 10 μM / OR13a response (VUAA1-normalized) at 100 μM: OR13a cell line
T2 construct: expressed in transfected cells
T2 sequence (Q9VXL0 1-418): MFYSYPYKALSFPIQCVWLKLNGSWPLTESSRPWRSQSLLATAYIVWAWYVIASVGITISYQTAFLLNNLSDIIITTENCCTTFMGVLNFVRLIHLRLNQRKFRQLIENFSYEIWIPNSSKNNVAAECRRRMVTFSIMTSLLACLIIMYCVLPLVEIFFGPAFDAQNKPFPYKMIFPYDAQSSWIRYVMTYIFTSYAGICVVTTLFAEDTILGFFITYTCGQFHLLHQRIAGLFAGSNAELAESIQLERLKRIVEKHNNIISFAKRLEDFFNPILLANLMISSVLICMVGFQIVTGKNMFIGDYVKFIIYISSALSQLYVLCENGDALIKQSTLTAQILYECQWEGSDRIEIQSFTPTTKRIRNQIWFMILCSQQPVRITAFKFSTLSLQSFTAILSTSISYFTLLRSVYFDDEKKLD
T2 sequence (Q9VNB5 1-486 partner): T1 sequence (Q9VNB5 1-486 partner)
How it was run: as §1

[1] = concentration 1, normalized fluorescence change, values below 0.05 threshold given as 0
[2] = concentration 10, normalized fluorescence change, values below 0.05 threshold given as 0
[3] = concentration 100, normalized fluorescence change, values below 0.05 threshold given as 0
[4] = HEK293, read-out: OR47a Average response (VUAA1-normalized)
[5] = HEK293, read-out: OR47a response (VUAA1-normalized response)
[6] = HEK293, read-out: OR13a Average response (VUAA1-normalized), 1 μM VOC, 50 μM VUAA1 = 1, responses not exceeding 0.05 considered 0
[7] = HEK293, read-out: OR13a Average response (VUAA1-normalized), 10 μM VOC, 50 μM VUAA1 = 1, responses not exceeding 0.05 considered 0
[8] = HEK293, read-out: OR13a Average response (VUAA1-normalized), 100 μM VOC, 50 μM VUAA1 = 1, responses not exceeding 0.05 considered 0
[9] = HEK293, read-out: OR13a response (VUAA1-normalized response), VOC concentration 1 μM
[10] = HEK293, read-out: OR13a response (VUAA1-normalized response), VOC concentration 10 μM
[11] = HEK293, read-out: OR13a response (VUAA1-normalized response), VOC concentration 100 μM
[12] = ligand concentration 1 (unit not given), threshold 0.05, below shown as 0
[13] = ligand concentration 10 (unit not given), threshold 0.05, below shown as 0
[14] = ligand concentration 100 (unit not given), threshold 0.05, below shown as 0

Row | SMILES | Average response (Drosophila OR47a; odorant cc. 1 µM) | Average response (Drosophila OR47a; odorant cc. 10 µM) | Average response (Drosophila OR47a; odorant cc. 100 µM) | DF norm AVERAGE OR47a (Drosophila OR47a; [1]) | DF norm AVERAGE OR47a (Drosophila OR47a; [2]) | DF norm AVERAGE OR47a (Drosophila OR47a; [3]) | DF norm AVERAGE OR13a (Drosophila OR13a; [1]) | DF norm AVERAGE OR13a (Drosophila OR13a; [2]) | DF norm AVERAGE OR13a (Drosophila OR13a; [3]) | activation at 1 µM (Drosophila OR47a; [4]) | activation at 10 µM (Drosophila OR47a; [4]) | activation at 100 µM (Drosophila OR47a; [4]) | activation at 1 µM (Drosophila OR47a; [5]) | activation at 10 µM (Drosophila OR47a; [5]) | activation at 100 µM (Drosophila OR47a; [5]) | activation at 1 µM (Drosophila OR13a; [6]) | activation at 10 µM (Drosophila OR13a; [7]) | activation at 100 µM (Drosophila OR13a; [8]) | activation at 1 µM (Drosophila OR13a; [9]) | activation at 10 µM (Drosophila OR13a; [10]) | further results
1 | C=C(C)[C@H]1CC=C(C)CC1 [(R)-(+)-limonene] | 0.05 | 0.0529 | 0.00 | 0 | 0.05286 | 0 | 0 | 0 | 0 | – | – | – | – | – | – | – | – | – | – | – | OR47a response (VUAA1-normalized response) (Drosophila OR47a; VOC concentration 1 μM): 0.00; OR47a response (VUAA1-normalized response) (Drosophila OR47a; VOC concentration 10 μM): 0.0529; OR47a response (VUAA1-normalized response) (Drosophila OR47a; VOC concentration 100 μM): 0.00; OR13a Average response (VUAA1-normalized) (Drosophila OR13a; 1 μM VOC, 50 μM VUAA1 = 1, responses not exceeding 0.05 considered 0): 0.00; OR13a Average response (VUAA1-normalized) (Drosophila OR13a; 10 μM VOC, 50 μM VUAA1 = 1, responses not exceeding 0.05 considered 0): 0.0429; OR13a Average response (VUAA1-normalized) (Drosophila OR13a; 100 μM VOC, 50 μM VUAA1 = 1, responses not exceeding 0.05 considered 0): 0.0285; OR13a response (VUAA1-normalized response) (Drosophila OR13a; VOC concentration 1 μM): 0.00; OR13a response (VUAA1-normalized response) (Drosophila OR13a; VOC concentration 10 μM): 0.00; OR13a response (VUAA1-normalized response) (Drosophila OR13a; VOC concentration 100 μM): 0.00
2 | CCCCC(C)=O [2-hexanone] | 0.0368 | 0.00 | 0.16 | 0 | 0 | 0.1643 | 0.05965 | 0 | 0 | 4% | 0% | 16% | 0% | 0% | 16% | 6% | 0% | 0% | 6% | 0% | activation at 100 µM (Drosophila OR13a; [11]): 0%
3 | CCCCCC(C)=O [2-heptanone] | 0.03 | 0.19 | 0.46 | 0 | 0.1895 | 0.4589 | 0 | 0 | 0 | 3% | 19% | 46% | 0% | 19% | 46% | 0% | 2.36% | 1.75% | 0% | 0% | activation at 100 µM (Drosophila OR13a; [11]): 0%
4 | CC/C=C\CCO [Z-3-hexenol] | – | – | – | – | – | – | – | – | – | – | – | – | – | – | – | – | – | – | – | – | OR47a response (VUAA1-normalized) at 1 μM (Drosophila OR47a; VOC concentration 1 μM): 0.00; OR47a response (VUAA1-normalized) at 10 μM (Drosophila OR47a; VOC concentration 10 μM): 0.0571; OR47a response (VUAA1-normalized) at 100 μM (Drosophila OR47a; VOC concentration 100 μM): 0.10; OR13a response (VUAA1-normalized) at 1 μM (Drosophila OR13a; VOC concentration 1 μM): 0.00; OR13a response (VUAA1-normalized) at 10 μM (Drosophila OR13a; VOC concentration 10 μM): 0.06; OR13a response (VUAA1-normalized) at 100 μM (Drosophila OR13a; VOC concentration 100 μM): 0.00
5 | Cc1ccc(C(C)C)cc1 [p-cymene] | 0.00 | 0.00 | 0.00 | – | – | – | – | – | – | – | – | – | – | – | – | 0% | 0% | 0% | – | – | OR47a response (VUAA1-normalized) at 1 μM (Drosophila OR47a; VOC concentration 1 μM): 0.00; OR47a response (VUAA1-normalized) at 10 μM (Drosophila OR47a; VOC concentration 10 μM): 0.00; OR47a response (VUAA1-normalized) at 100 μM (Drosophila OR47a; VOC concentration 100 μM): 0.00; DF norm AVERAGE OR47a (Drosophila OR47a; [12]): 0; DF norm AVERAGE OR47a (Drosophila OR47a; [13]): 0; DF norm AVERAGE OR47a (Drosophila OR47a; [14]): 0; OR13a response (VUAA1-normalized) at 1 μM (Drosophila OR13a; VOC concentration 1 μM): 0.00; OR13a response (VUAA1-normalized) at 10 μM (Drosophila OR13a; VOC concentration 10 μM): 0.00; OR13a response (VUAA1-normalized) at 100 μM (Drosophila OR13a; VOC concentration 100 μM): 0.00; DF norm AVERAGE OR13a (Drosophila OR13a; [12]): 0; DF norm AVERAGE OR13a (Drosophila OR13a; [13]): 0; DF norm AVERAGE OR13a (Drosophila OR13a; [14]): 0
